Experimental data from patent US20100035941A1, “METHODS FOR INCREASING BLOOD FLOW AND/OR PROMOTING TISSUE REGENERATION” (priority 2006, published 2010).
Several values for one entry are separate records, joined by “and”; a condition that tells them apart may be missing. Equal values may be shown once. Read-outs that look alike come from different tables or passages of the source.

How the values were obtained:
[1] = test system: bone marrow stem cells; conditions: rats; coronary ligation; injected within 4 to 6 hours, with or without rhG-CSF
Experimental: Adult rats are anesthetized and a thoracotomy is performed. The descending branch of the left coronary artery is ligated and not reperfused. […] Control rats are not treated with the reagents. The animals are monitored at one-week intervals by echocardiography and MRI. The experiment is terminated at 2, 6 to 12 weeks post-surgery. On the day of sacrifice, the hemodynamic functions are analyzed for left ventricle-end diastolic pressure, left ventricle-developed pressure and the rate of rise and fall of left ventricle pressure. The heart is then arrested in diastole and perfused via the abdominal aorta to flush residual blood from the vascular network of the myocardium. This is followed by perfusion of the heart with 10% formalin. Several slices are made through the fixed heart and these are embedded in paraffin and sections. The sections are stained and analyzed by light microscopy to determine the size of the infarct in the treated and control animals. Tissue sections from hearts taken at 2 weeks after surgery are stained with antibodies specific for immature, developing myocyte and blood vessel proteins and analyzed by confocal microscopy. The immunohistochemical analysis involves the identification of transcription factors and surface markers expressed in early stages of myocyte development.

[2] = test system: CD34 positive progenitor cells; conditions: human volunteers; single s.c. 80 μg/kg
Experimental: (§1) Five healthy human volunteers having initial white blood cell counts of 4,500-7,500 cells/mm^3 were used in the study. […] Blood samples were obtained via catheter prior to the dose, and at various times up to 24 hours after dosing.
(§2) The blood samples were evaluated for total white blood cells, CD34 positive progenitor cells (via FACS analysis) as a percentage of total white blood cells, as well as the absolute numbers per mL and cycling status of granulocyte macrophage (CFU-GM), erythroid (BFU-E), and multipotential (CFU-GEMM) progenitor cells.

[3] = test system: white blood cells; conditions: single s.c. 80 μg/kg
Experimental: as §1, §2

[4] = test system: CFU-GM progenitor cells; conditions: donors' mean, s.c. 80 μg/kg
Experimental: (§3) All progenitor cell results are based on the scoring of 3 culture plates per assay per point.
(§4) For the progenitor cell numbers and cycling status, the numbers of CFU-GM, BFU-E and CFU-GEMM in methylcellulose cultures by stimulation of the cells with 1 Unit (U)/ml recombinant human (rhu) erythropoietin, 100 U/ml rhu granulocyte-macrophage colony stimulating factor (GM-CSF), 100 U/ml rhu interleukin-3 (IL-3) and 50 ng/ml rhu steel factor (SLF=stem cell factor (SCF)). The CFU-GM were also evaluated in agar cultures stimulated with 100 U/ml rhu GM-CSF and 50 ng/ml rhu SLF. For both types of assays, colonies were scored after 14 day incubation in a humidified atmosphere with 5% CO2 and lowered (5%) O2 tension. Cell cycling status of progenitors was measured using a high specific activity tritiated thymidine kill technique as previously described (Broxmeyer, H. E., et al., Exp. Hematol. (1989) 17:455-459).

[5] = test system: CFU-GM, BFU-E and CFU-GEMM progenitor cells; conditions: s.c. 80 μg/kg; for mean fold change vs T=0, methylcellulose culture BFU-E, MEAN / mean fold change vs T=0, methylcellulose culture CFU-GEMM, MEAN / mean fold change vs T=0, methylcellulose culture CFU-GM, MEAN / methylcellulose culture BFU-E, % CHG / methylcellulose culture CFU-GEMM, % CHG / methylcellulose culture CFU-GM, % CHG: 5 donors
Experimental: as §3, §4

[6] = test system: progenitor cells; conditions: AMD3100 5 mg/Kg s.c. plus MIP-1α 5 μg I.V., 11 hours after rhu G-CSF or saline, 1 hour prior to assessing the blood
Experimental: Groups of mice were randomized to receive control diluent (saline) or G-CSF at a dose of 2.5 μg per mouse, twice a day, for two days via s.c. injection. […] One hour later, the mice were sacrificed and the number of progenitor cells per mL of blood were measured.

[7] = test system: ischemic hind limb; experiment: Tissue regeneration in diabetic animal ischemic model: limb blood flow restoration, LASER Doppler; type: in vivo, male nude Hfh11 mice; conditions: diabetic mice
Experimental: Three to four weeks after injection of STZ the left hind limb was made ischemic by ligation of the iliac artery and removal of a 0.5-1 cm segment distal to the ligation.
One group of additional mice (n=11) was injected intramuscularly into the ischemic hindlimb with human non-diabetic-derived unmobilized CD34+ (unCD34+) peripheral blood mononuclear cells (PBMCs), two to four hours after surgery. […] Untreated mice served as controls (n=10).
Limb blood flow restoration was analyzed immediately before and after surgery and at various times thereafter in the entire limb distal to the ligation using LASER Doppler analysis.

[8] = test system: progenitors in DNA synthesis (S) phase of the cell cycle; conditions: for BFU-E Cycling Status of Progenitors / CFU-GEMM Cycling Status of Progenitors / CFU-GM Cycling Status of Progenitors: % progenitors in S phase; for BFU-E Cycling Status of Progenitors / CFU-GEMM Cycling Status of Progenitors / CFU-GM Cycling Status of Progenitors / AGAR Culture CFU-GM Cycling Status of Progenitors: s.c. 80 μg/kg
Experimental: as §4

[9] = ischemic hind limb, 5 mg/kg intraperitoneally on days 0 and 2
[10] = individual donors P1-P5, T = 1 hour
[11] = individual donors P1-P5, T = 3 hours
[12] = individual donors P1-P5, T = 6 hours
[13] = individual donors P1-P5, T = 9 hours
[14] = individual donors P1-P5, T = 24 hours

c1cc(CN2CCCNCCNCCCNCC2)ccc1CN1CCCNCCNCCCNCC1 [AMD3100, 1,1′-[1,4-phenylene-bis(methylene)]-bis-1,4,8,11-tetraazacyclotetradecane]
expected effect on ischemic myocardium [1]: will lead to regeneration of the dead myocardium | time post-administration at which elevation of CD34 positive progenitor cells maximized [2]: 6 h | time post-administration at which elevation of the white blood cell count maximized ([3]; human volunteers): 6 h | mobilization of white blood cells in individual volunteers ([3]; 2 Hr, volunteers P1-P5): 12.4 × 10^3 WBC's and 21.4 × 10^3 WBC's and 13.5 × 10^3 WBC's | agar culture CFU-GM, % CHG ([4]; T = 1 hour): 180.8% | mean fold change vs T=0, agar culture CFU-GM, MEAN ([4]; T = 1 hour): 2.81 | agar culture CFU-GM, % CHG ([4]; T = 3 hours): 754.1% | mean fold change vs T=0, agar culture CFU-GM, MEAN ([4]; T = 3 hours): 8.54 | agar culture CFU-GM, % CHG ([4]; T = 6 hours): 1692.8% | mean fold change vs T=0, agar culture CFU-GM, MEAN ([4]; T = 6 hours): 17.93 | agar culture CFU-GM, % CHG ([4]; T = 9 hours): 924.9% | mean fold change vs T=0, agar culture CFU-GM, MEAN ([4]; T = 9 hours): 10.25 | agar culture CFU-GM, % CHG ([4]; T = 24 hours): 108.3% | mean fold change vs T=0, agar culture CFU-GM, MEAN ([4]; T = 24 hours): 2.08 | mean fold change vs T=0, methylcellulose culture BFU-E, MEAN ([5]; T = 1 hour): 1.99 | mean fold change vs T=0, methylcellulose culture CFU-GEMM, MEAN ([5]; T = 1 hour): 2.32 | mean fold change vs T=0, methylcellulose culture CFU-GM, MEAN ([5]; T = 1 hour): 4.77 | methylcellulose culture BFU-E, % CHG ([5]; T = 1 hour): 98.9% | methylcellulose culture CFU-GEMM, % CHG ([5]; T = 1 hour): 131.8% | methylcellulose culture CFU-GM, % CHG ([5]; T = 1 hour): 376.7% | mean fold change vs T=0, methylcellulose culture BFU-E, MEAN ([5]; T = 3 hours): 3.21 | mean fold change vs T=0, methylcellulose culture CFU-GEMM, MEAN ([5]; T = 3 hours): 4.33 | mean fold change vs T=0, methylcellulose culture CFU-GM, MEAN ([5]; T = 3 hours): 13.66 | methylcellulose culture BFU-E, % CHG ([5]; T = 3 hours): 221.3% | methylcellulose culture CFU-GEMM, % CHG ([5]; T = 3 hours): 332.5% | methylcellulose culture CFU-GM, % CHG ([5]; T = 3 hours): 1266.5% | mean fold change vs T=0, methylcellulose culture BFU-E, MEAN ([5]; T = 6 hours): 6.01 | mean fold change vs T=0, methylcellulose culture CFU-GEMM, MEAN ([5]; T = 6 hours): 10.07 | mean fold change vs T=0, methylcellulose culture CFU-GM, MEAN ([5]; T = 6 hours): 21.71 | methylcellulose culture BFU-E, % CHG ([5]; T = 6 hours): 500.5% | methylcellulose culture CFU-GEMM, % CHG ([5]; T = 6 hours): 907.2% | methylcellulose culture CFU-GM, % CHG ([5]; T = 6 hours): 2070.6% | mean fold change vs T=0, methylcellulose culture BFU-E, MEAN ([5]; T = 9 hours): 4.34 | mean fold change vs T=0, methylcellulose culture CFU-GEMM, MEAN ([5]; T = 9 hours): 5.25 | mean fold change vs T=0, methylcellulose culture CFU-GM, MEAN ([5]; T = 9 hours): 10.47 | methylcellulose culture BFU-E, % CHG ([5]; T = 9 hours): 334.4% | methylcellulose culture CFU-GEMM, % CHG ([5]; T = 9 hours): 425.4% | methylcellulose culture CFU-GM, % CHG ([5]; T = 9 hours): 947.3% | mean fold change vs T=0, methylcellulose culture BFU-E, MEAN ([5]; T = 24 hours): 1.26 | mean fold change vs T=0, methylcellulose culture CFU-GEMM, MEAN ([5]; T = 24 hours): 1.53 | mean fold change vs T=0, methylcellulose culture CFU-GM, MEAN ([5]; T = 24 hours): 1.56 | methylcellulose culture BFU-E, % CHG ([5]; T = 24 hours): 26.3% | methylcellulose culture CFU-GEMM, % CHG ([5]; T = 24 hours): 53.2% | methylcellulose culture CFU-GM, % CHG ([5]; T = 24 hours): 55.5% | time after injection of maximal fold increases in circulating levels of progenitor cells ([5]; all five human donors): 6 h | mobilization of progenitor cells in combination with mu MIP-1α [6]: additive to greater than additive | time at which drug induced improvement was observed [7, 9]: two | time by which blood flow had reached its maximum [7, 9]: seven | blood flow maintained, mean % of the initial flow (plateau) ([7]; ischemic hind limb, 5 mg/kg intraperitoneally on the day of and two days after surgery, mean flow d8-d24): 74.6±2.8% | overall effect of systemic therapy on blood flow restoration ([7]; ischemic limb, systemic (intraperitoneal) treatment): accelerated blood flow restoration, but did not increase it | BFU-E Cycling Status of Progenitors [8, 10]: 3% and 0% (4×) | CFU-GEMM Cycling Status of Progenitors [8, 10]: 6% and 0% (4×) | CFU-GM Cycling Status of Progenitors [8, 10]: 1% and 0% (4×) | CFU-GEMM Cycling Status of Progenitors [8, 11]: 0% (4×) and 7% | BFU-E Cycling Status of Progenitors [8, 12]: 0% (4×) and 1% | CFU-GEMM Cycling Status of Progenitors [8, 12]: 0% (4×) and 8% | CFU-GM Cycling Status of Progenitors [8, 12]: 0% | BFU-E Cycling Status of Progenitors [8, 13]: 0% (4×) and 11% | CFU-GEMM Cycling Status of Progenitors [8, 13]: 4% and 0% (4×) | CFU-GM Cycling Status of Progenitors [8, 13]: 2% and 0% (4×) | BFU-E Cycling Status of Progenitors [8, 14]: 2% and 0% (3×) and 3% | CFU-GEMM Cycling Status of Progenitors [8, 14]: 0% | CFU-GM Cycling Status of Progenitors [8, 14]: 0% (3×) and 3% and 5% | AGAR Culture CFU-GM Cycling Status of Progenitors [8, 10]: 3% and 0% (4×) | AGAR Culture CFU-GM Cycling Status of Progenitors [8, 11]: 0% (4×) and 1% | AGAR Culture CFU-GM Cycling Status of Progenitors [8, 12]: 1% and 0% (2×) and 3% (2×) | AGAR Culture CFU-GM Cycling Status of Progenitors ([8]; individual donors P2-P5, T = 9 hours): 0% | AGAR Culture CFU-GM Cycling Status of Progenitors ([8]; individual donors P2-P5, T = 24 hours): 0% | cycling state of progenitors ([8]; prior to and 1, 3, 6, 9 and 24 hours after injection, human donors): slow or non-cycling state
